Data from PMC2956004 (Bioorganic & medicinal chemistry, 2010).

Target: recombinant HCV NS5B (genotype 1b) NS5BCΔ21 (Hepatitis C virus genotype 1b, UniProt P26663)
Test: in vitro NS5B RNA dependent RNA polymerase
Format: biochemical
Conditions: Supplementary data, Table S1

SMILES	NS5B inhibitory activity (in words)
O=C(O)CN1C(=O)CSC1=S [2-(4-oxo-2-thioxothiazolidin-3-yl)acetic acid]	either inactive or poorly active
O=C(O)CN1C(=O)C(=Cc2ccccc2)SC1=S [2-(5-benzylidene-4-oxo-2-thioxothiazolidin-3-yl)acetic acid]	either inactive or poorly active
CCN1C(=O)C(=Cc2ccc(Cl)cc2Cl)SC1=S [5-(2,4-dichlorobenzylidene)-3-ethyl-2-thioxothiazolidin-4-one]	either inactive or poorly active
